Measured values: US7479478B2, “Human parathyroid hormone modifications, preparation and use” (The General Hospital Corporation, priority 1998, dated 2009)
“Also recorded” adds a separate entry of the source. No end group written: not given here.

Key:
human PTH-1 receptors [1] = target: T1, human PTH-1 receptors (Homo sapiens, UniProt Q03431); experiment: PLC activation (IP3 formation) in HKRK B7 cells; type: cell-based; details: HKRK B7 cells
T1 construct: expressed in transfected cells
T1 sequence (Q03431 27-593): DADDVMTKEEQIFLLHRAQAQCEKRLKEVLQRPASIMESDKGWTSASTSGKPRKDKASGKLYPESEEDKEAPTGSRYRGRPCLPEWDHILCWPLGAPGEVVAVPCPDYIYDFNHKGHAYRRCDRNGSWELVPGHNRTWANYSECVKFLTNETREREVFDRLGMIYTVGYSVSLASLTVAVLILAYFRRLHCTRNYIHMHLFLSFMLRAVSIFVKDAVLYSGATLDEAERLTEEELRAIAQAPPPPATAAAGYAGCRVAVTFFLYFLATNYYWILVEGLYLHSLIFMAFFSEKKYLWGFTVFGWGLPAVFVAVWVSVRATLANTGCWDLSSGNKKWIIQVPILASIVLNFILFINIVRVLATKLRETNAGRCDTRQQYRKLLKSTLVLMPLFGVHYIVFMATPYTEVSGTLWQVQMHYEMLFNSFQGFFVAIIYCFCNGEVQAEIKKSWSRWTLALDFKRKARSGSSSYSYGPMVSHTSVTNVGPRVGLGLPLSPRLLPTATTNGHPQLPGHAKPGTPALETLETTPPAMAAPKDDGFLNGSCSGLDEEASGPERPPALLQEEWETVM
Method: (§1) HKRK B7 or EW5 cells (32), subclones of LLC-PKI renal epithelial cells that stably express human or rat PTH-1 receptors (950,000 and 320,000 receptors/cell, respectively), were maintained under 5% CO2 in air in Dulbecco's modified essential medium containing 7% fetal bovine serum (FBS) and 1% penicillin/streptomycin (GIBCO-BRL, Grand Island, N.Y.). HEK-293 and COS-7 cells were cultured similarly, except that 10% FBS was used in the medium. Cells were seeded into 24-well plates two days before assay at a density of 2-2.5×10^5 cells/well (HKRK B7 or EW 5 cells) or 6×10^5 cells/well (in 6-well plates) (HEK-293 cells). In experiments involving HEK-293 cells, DNA transfections were performed 24 hr after plating and inositol radiolabel was added 24 hr thereafter (see below). COS-7 cell transfections were performed as previously described (Gardella, T. J., et al., Endocrinology 132(5):2024-2030 (1993))
PLC was activated by PTH agonists in the presence of 30 mM LiCl at 37° C. for 30 min after 16 hr of labeling with [^3H]myo-inositol (3 uCi/ml) in serum-free medium containing 0.1% bovine serum albumin. The reactions were stopped by rapid aspiration and addition of cold 5% TCA. Water-soluble radiolabeled inositol trisphosphate (IP3) was isolated after ether extraction by ion-exchange chromatography (Guo, J., et al., Endocrinology 136(9):3884-3891 (1995)). In experiments involving HEK 293 cells, cells previously transfected with human PTHR cDNA (in the pcDNA1 expression vector HKRK) using Lipofectamine (Gibco BRL) were labeled with [^3H]myo-inositol and assayed as described above, except that total water-soluble [^3H]inositol polyphosphates were collected as a single fraction from the ion-exchange columns.

human PTH-1 receptors [2] = target: T1, human PTH-1 receptors; experiment: Radioligand competition binding with 125I-[Nle8,21,Tyr34]rat PTH-(1-34) in HKRK B7 cells; details: read-out: apparent IC50 for binding
Method: as §1, with “(1993)) Radioligand competition binding assays were performed at 2-8° C. for 6 hr using ^125I-[Nle^8,21,[…]]rat PTH-(1-34) (100,000 cpm/well) in the presence or absence of non-radioactive hPTH-(1-34) analogs. Cell layers were washed three times before solubilization for determination of cell-associated radioactivity.” for “(1993))”

rat PTH-1 receptors [3] = target: T2, rat PTH-1 receptors (Rattus norvegicus, UniProt P25961); experiment: PLC activation in EW5 cells; type: cell-based; details: compared with human PTH-1 receptor
T2 construct: expressed in transfected cells
T2 sequence (P25961 27-591): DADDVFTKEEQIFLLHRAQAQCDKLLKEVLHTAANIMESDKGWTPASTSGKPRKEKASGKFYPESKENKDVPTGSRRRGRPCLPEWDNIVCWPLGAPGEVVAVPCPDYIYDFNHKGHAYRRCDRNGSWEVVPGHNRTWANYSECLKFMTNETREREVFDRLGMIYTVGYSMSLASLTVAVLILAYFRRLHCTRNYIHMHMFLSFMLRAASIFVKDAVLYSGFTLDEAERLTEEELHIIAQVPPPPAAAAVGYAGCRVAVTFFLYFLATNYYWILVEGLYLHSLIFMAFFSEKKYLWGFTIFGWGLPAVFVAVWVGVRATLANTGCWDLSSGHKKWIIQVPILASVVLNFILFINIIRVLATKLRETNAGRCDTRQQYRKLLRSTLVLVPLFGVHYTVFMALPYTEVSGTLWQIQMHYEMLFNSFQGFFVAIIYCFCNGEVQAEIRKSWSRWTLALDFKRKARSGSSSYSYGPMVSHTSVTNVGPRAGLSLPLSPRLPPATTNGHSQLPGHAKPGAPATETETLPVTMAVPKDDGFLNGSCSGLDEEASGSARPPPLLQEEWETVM
Method: as §1
PLC was activated by PTH agonists in the presence of 30 mM LiCl at 37° C. for 30 min after 16 hr of labeling with [^3H]myo-inositol (3 uCi/ml) in serum-free medium containing 0.1% bovine serum albumin. The reactions were stopped by rapid aspiration and addition of cold 5% TCA. Water-soluble radiolabeled inositol trisphosphate (IP3) was isolated after ether extraction by ion-exchange chromatography (Guo, J., et al., Endocrinology 136(9):3884-3891 (1995)). […]

rat PTH-1 receptors [4] = target: T2, rat PTH-1 receptors; experiment: Radioligand binding in EW5 cells; details: compared with human PTH-1 receptor
Method: as §1
Radioligand competition binding assays were performed at 2-8° C. for 6 hr using ^125I-[Nle^8,21, Tyr^34]rat PTH-(1-34) (100,000 cpm/well) in the presence or absence of non-radioactive hPTH-(1-34) analogs. Cell layers were washed three times before solubilization for determination of cell-associated radioactivity. […]

membrane-bound PKCs = details: osteoblast-like ROS 17/2 cells; Neugebauer et al. 1995; cited from earlier work

## GVSEIQLMHNLGKHLNSMRRVEWLRKKL [[Gly^1,Arg^19]hPTH-(1-28)]
Human PTH-1 receptors [1]
  fold reduction of PLC potency versus hPTH(1-34): approximately 100 fold
Human PTH-1 receptors [1]; up to 1000 nM or 10 μM
  PLC activation (IP3 formation), result in words: no increase in PLC activity; also recorded: strikingly and selectively impaired

## SVSEIQLMHNLGKHLNSMERVEWLRKKL-NH2 [hPTH-(1-28)]
Human PTH-1 receptors [1]
  fold less potent than hPTH-(1-29) in PLC activation: approximately 5 fold
Human PTH-1 receptors [1]; read-out: EC50 for PLC activity
  EC50: 6 µM
Human PTH-1 receptors [2]
  IC50: 1 µM
Rat PTH-1 receptors [3]
  signaling (PLC) via rat PTH-1 receptors, result in words: more severely impaired
Rat PTH-1 receptors [4]
  binding affinity for rat PTH-1 receptor, result in words: comparable
membrane-bound PKCs
  stimulation of activity of membrane-bound PKCs: incapable of stimulating
